Measurements from patent US20250120932A1, “PHARMACEUTICAL COMPOSITION” (NEUROPRO THERAPEUTICS, INC., priority 2021, published 2025).

Experiment: Pharmacokinetic study in cynomolgus monkeys after oral (nasogastric) gavage, sublingual and intravenous administration
Assay type: in vivo
Conditions: cynomolgus monkey, plasma, Plasma Bumetanide Dibenzylamide concentration, monkey; for concentration at 0.5 h: 0.50 h
Procedure: A pharmacokinetic study was done in cynomolgus monkeys following single oral (nasogastric) gavage, sublingual, and intravenous administration. […] Calibration curves, blanks, and analytical QCs were prepared in monkey plasma (K2EDTA). The extracts were evaporated to dryness, reconstituted, and then analyzed by LC-MS/MS. The calibration range was 0.250-250 ng/mL for both analytes.
If the criteria for either the calibration curve or the analytical QCs were not met, the analytical run was rejected. […] No deviations were found during the bioanalytical phase of the study conducted by Origin. Calibration curves were derived from the individual analyte to internal standard peak area ratios using the least squared regression of the ratio versus the nominal concentration of the calibration standard, prepared in duplicate. The regression was then used to back-calculate the concentration of each calibration standard, QC sample and study sample. […] Analyst® Software Version 1.6.3 (Applied Biosystems-MDS Sciex), operated with Windows® (Microsoft), was used for instrument control, data acquisition, and peak integrations. Peak area ratios, standard curve regressions, and sample concentration/accuracy values were calculated with Analyst® Software Version 1.6.3. Other results (e.g., mean statistics) were calculated with Excel® (Microsoft).
There was no apparent sex difference for the second formulation. […] A fourth formulation comprising the composition B listed in Table 54 was also administered in monheys.

[1] = both sexes, oral, 30 mg/kg, Mean, NG 30 mg/kg, First Formulation (Form 1), N=4
[2] = both sexes, oral, 30 mg/kg, Mean, NG 30 mg/kg, Second Formulation (Form 3), N=4
[3] = both sexes, oral, 30 mg/kg, Median, NG 30 mg/kg, First Formulation (Form 1), N=4
[4] = both sexes, oral, 30 mg/kg, Median, NG 30 mg/kg, Second Formulation (Form 3), N=4
[5] = intravenous, 2 mg/kg, Mean, dose column 2 mg/kg (title 30 mg/kg), Third Formulation (Form 4), N=4
[6] = intravenous, 2 mg/kg, dose column 2 mg/kg (title 30 mg/kg), Third Formulation (Form 4), individual animals
[7] = other: sublingual, 5 mg/kg, Mean, SL, dose column 5 mg/kg (title 30 mg/kg), Fourth Formulation (Form 2), N=4
[8] = other: sublingual, 5 mg/kg, Median, SL, dose column 5 mg/kg (title 30 mg/kg), Fourth Formulation (Form 2), N=4

CCCCNc1cc(C(=O)N(Cc2ccccc2)Cc2ccccc2)cc(S(N)(=O)=O)c1Oc1ccccc1 [Bumetanide Dibenzylamide, N, N-dibenzyl 3-aminosulfonyl-5-butylamino-4-phenoxybenzamide]
concentration at 0 h [1]: 0 ng/mL
concentration at 0.25 h [1]: 4.31 ng/mL
concentration at 0.5 h [1]: 5.9 ng/mL
concentration at 1 h (both sexes, oral, 30 mg/kg, Mean, NG 30 mg/kg, First Formulation (Form 1), 1.00 h, N=4): 13.2 ng/mL
concentration at 2 h (both sexes, oral, 30 mg/kg, Mean, NG 30 mg/kg, First Formulation (Form 1), 2.00 h, N=4): 62.6 ng/mL
concentration at 4 h (both sexes, oral, 30 mg/kg, Mean, NG 30 mg/kg, First Formulation (Form 1), 4.00 h, N=4): 66.8 ng/mL
concentration at 8 h (both sexes, oral, 30 mg/kg, Mean, NG 30 mg/kg, First Formulation (Form 1), 8.00 h, N=4): 44.9 ng/mL
concentration at 24 h (both sexes, oral, 30 mg/kg, Mean, NG 30 mg/kg, First Formulation (Form 1), 24.00 h, N=4): 8.59 ng/mL
concentration at 32 h (both sexes, oral, 30 mg/kg, Mean, NG 30 mg/kg, First Formulation (Form 1), 32.00 h, N=4): 4.51 ng/mL
concentration at 0 h [2]: 0 ng/mL
concentration at 0.25 h [2]: 0.283 ng/mL
concentration at 0.5 h [2]: 2.85 ng/mL
concentration at 1 h (both sexes, oral, 30 mg/kg, Mean, NG 30 mg/kg, Second Formulation (Form 3), 1.00 h, N=4): 11.5 ng/mL
concentration at 2 h (both sexes, oral, 30 mg/kg, Mean, NG 30 mg/kg, Second Formulation (Form 3), 2.00 h, N=4): 54.1 ng/mL
concentration at 4 h (both sexes, oral, 30 mg/kg, Mean, NG 30 mg/kg, Second Formulation (Form 3), 4.00 h, N=4): 231 ng/mL
concentration at 8 h (both sexes, oral, 30 mg/kg, Mean, NG 30 mg/kg, Second Formulation (Form 3), 8.00 h, N=4): 590 ng/mL
concentration at 24 h (both sexes, oral, 30 mg/kg, Mean, NG 30 mg/kg, Second Formulation (Form 3), 24.00 h, N=4): 13.6 ng/mL
concentration at 32 h (both sexes, oral, 30 mg/kg, Mean, NG 30 mg/kg, Second Formulation (Form 3), 32.00 h, N=4): 2.94 ng/mL
concentration at 0 h [3]: 0 ng/mL
concentration at 0.25 h [3]: 0.962 ng/mL
concentration at 0.5 h [3]: 2.82 ng/mL
concentration at 1 h (both sexes, oral, 30 mg/kg, Median, NG 30 mg/kg, First Formulation (Form 1), 1.00 h, N=4): 10.1 ng/mL
concentration at 2 h (both sexes, oral, 30 mg/kg, Median, NG 30 mg/kg, First Formulation (Form 1), 2.00 h, N=4): 42.6 ng/mL
concentration at 4 h (both sexes, oral, 30 mg/kg, Median, NG 30 mg/kg, First Formulation (Form 1), 4.00 h, N=4): 37.6 ng/mL
concentration at 8 h (both sexes, oral, 30 mg/kg, Median, NG 30 mg/kg, First Formulation (Form 1), 8.00 h, N=4): 31.3 ng/mL
concentration at 24 h (both sexes, oral, 30 mg/kg, Median, NG 30 mg/kg, First Formulation (Form 1), 24.00 h, N=4): 5.38 ng/mL
concentration at 32 h (both sexes, oral, 30 mg/kg, Median, NG 30 mg/kg, First Formulation (Form 1), 32.00 h, N=4): 3.75 ng/mL
concentration at 0 h [4]: 0 ng/mL
concentration at 0.25 h [4]: 0.256 ng/mL
concentration at 0.5 h [4]: 2.44 ng/mL
concentration at 1 h (both sexes, oral, 30 mg/kg, Median, NG 30 mg/kg, Second Formulation (Form 3), 1.00 h, N=4): 9.43 ng/mL
concentration at 2 h (both sexes, oral, 30 mg/kg, Median, NG 30 mg/kg, Second Formulation (Form 3), 2.00 h, N=4): 58.6 ng/mL
concentration at 4 h (both sexes, oral, 30 mg/kg, Median, NG 30 mg/kg, Second Formulation (Form 3), 4.00 h, N=4): 194 ng/mL
concentration at 8 h (both sexes, oral, 30 mg/kg, Median, NG 30 mg/kg, Second Formulation (Form 3), 8.00 h, N=4): 566 ng/mL
concentration at 24 h (both sexes, oral, 30 mg/kg, Median, NG 30 mg/kg, Second Formulation (Form 3), 24.00 h, N=4): 10 ng/mL
concentration at 32 h (both sexes, oral, 30 mg/kg, Median, NG 30 mg/kg, Second Formulation (Form 3), 32.00 h, N=4): 1.86 ng/mL
concentration at 0 h (both sexes, oral, 30 mg/kg, NG 30 mg/kg, First Formulation (Form 1), individual animals): 0 ng/mL
concentration at 0 h (both sexes, oral, 30 mg/kg, NG 30 mg/kg, Second Formulation (Form 3), individual animals): 0 ng/mL
concentration at 8 h (both sexes, oral, 30 mg/kg, NG 30 mg/kg, Second Formulation (Form 3), 8.00 h, individual animals): 442 ng/mL
concentration at 0.08 h [5]: 1440 ng/mL
concentration at 0.5 h [5]: 664 ng/mL
concentration at 1 h (intravenous, 2 mg/kg, Mean, dose column 2 mg/kg (title 30 mg/kg), Third Formulation (Form 4), 1.00 h, N=4): 483 ng/mL
concentration at 2 h (intravenous, 2 mg/kg, Mean, dose column 2 mg/kg (title 30 mg/kg), Third Formulation (Form 4), 2.00 h, N=4): 285 ng/mL
concentration at 4 h (intravenous, 2 mg/kg, Mean, dose column 2 mg/kg (title 30 mg/kg), Third Formulation (Form 4), 4.00 h, N=4): 114 ng/mL
concentration at 8 h (intravenous, 2 mg/kg, Mean, dose column 2 mg/kg (title 30 mg/kg), Third Formulation (Form 4), 8.00 h, N=4): 30.7 ng/mL
concentration at 24 h (intravenous, 2 mg/kg, Mean, dose column 2 mg/kg (title 30 mg/kg), Third Formulation (Form 4), 24.00 h, N=4): 3.57 ng/mL
concentration at 32 h (intravenous, 2 mg/kg, Mean, dose column 2 mg/kg (title 30 mg/kg), Third Formulation (Form 4), 32.00 h, N=4): 1.48 ng/mL
concentration at 0.08 h [6]: 1860 ng/mL
concentration at 0.5 h [6]: 717 ng/mL
concentration at 1 h (intravenous, 2 mg/kg, dose column 2 mg/kg (title 30 mg/kg), Third Formulation (Form 4), 1.00 h, individual animals): 538 ng/mL
concentration at 2 h (intravenous, 2 mg/kg, dose column 2 mg/kg (title 30 mg/kg), Third Formulation (Form 4), 2.00 h, individual animals): 332 ng/mL
concentration at 4 h (intravenous, 2 mg/kg, dose column 2 mg/kg (title 30 mg/kg), Third Formulation (Form 4), 4.00 h, individual animals): 149 ng/mL
concentration at 0 h [7]: 0 ng/mL
concentration at 0.25 h [7]: 0 ng/mL
concentration at 0.5 h [7]: 0 ng/mL
concentration at 1 h (other: sublingual, 5 mg/kg, Mean, SL, dose column 5 mg/kg (title 30 mg/kg), Fourth Formulation (Form 2), 1.0 h, N=4): 0 ng/mL
concentration at 2 h (other: sublingual, 5 mg/kg, Mean, SL, dose column 5 mg/kg (title 30 mg/kg), Fourth Formulation (Form 2), 2.0 h, N=4): 0.155 ng/mL
concentration at 4 h (other: sublingual, 5 mg/kg, Mean, SL, dose column 5 mg/kg (title 30 mg/kg), Fourth Formulation (Form 2), 4.0 h, N=4): 0.114 ng/mL
concentration at 8 h (other: sublingual, 5 mg/kg, Mean, SL, dose column 5 mg/kg (title 30 mg/kg), Fourth Formulation (Form 2), 8.0 h, N=4): 0.41 ng/mL
concentration at 24 h (other: sublingual, 5 mg/kg, Mean, SL, dose column 5 mg/kg (title 30 mg/kg), Fourth Formulation (Form 2), 24.0 h, N=4): 0.248 ng/mL
concentration at 32 h (other: sublingual, 5 mg/kg, Mean, SL, dose column 5 mg/kg (title 30 mg/kg), Fourth Formulation (Form 2), 32.0 h, N=4): 0.0803 ng/mL
concentration at 0 h [8]: 0 ng/mL
concentration at 0.25 h [8]: 0 ng/mL
concentration at 0.5 h [8]: 0 ng/mL
concentration at 1 h (other: sublingual, 5 mg/kg, Median, SL, dose column 5 mg/kg (title 30 mg/kg), Fourth Formulation (Form 2), 1.0 h, N=4): 0 ng/mL
concentration at 2 h (other: sublingual, 5 mg/kg, Median, SL, dose column 5 mg/kg (title 30 mg/kg), Fourth Formulation (Form 2), 2.0 h, N=4): 0 ng/mL
concentration at 4 h (other: sublingual, 5 mg/kg, Median, SL, dose column 5 mg/kg (title 30 mg/kg), Fourth Formulation (Form 2), 4.0 h, N=4): 0 ng/mL
concentration at 8 h (other: sublingual, 5 mg/kg, Median, SL, dose column 5 mg/kg (title 30 mg/kg), Fourth Formulation (Form 2), 8.0 h, N=4): 0.505 ng/mL
concentration at 24 h (other: sublingual, 5 mg/kg, Median, SL, dose column 5 mg/kg (title 30 mg/kg), Fourth Formulation (Form 2), 24.0 h, N=4): 0.182 ng/mL
concentration at 32 h (other: sublingual, 5 mg/kg, Median, SL, dose column 5 mg/kg (title 30 mg/kg), Fourth Formulation (Form 2), 32.0 h, N=4): 0 ng/mL
